Patent US10087229B2, “Peptide compound” (TAKEDA PHARMACEUTICAL COMPANY LIMITED, priority 2013, dated 2018)
Square brackets hold non-standard residues; d marks the D form. Peptide text beside a SMILES is read from it. αMeF = C[C@](N)(Cc1ccccc1)C(=O)O; Aib = CC(C)(N)C(=O)O

Experiments:
male C57BL/6J mouse = assay: 2-days continuous subcutaneous administration test (feeding suppressive activity); format: in vivo; conditions: 10 nmol/kg/day, subcutaneous Alzet pump, 2-days cumulative food consumption, control (solvent alone) = 0%
In short: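 Male C57BL/6J mice, 8-9 weeks, given test compound at 10 nmol/kg/day by subcutaneously implanted osmotic pump (50% DMSO vehicle), housed singly with free food access. Cumulative 2-day food consumption measured; suppression rate (%) calculated relative to vehicle-only controls.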

[1] = test system: Diet-induced obesity (DIO) male C57BL/6J mice; assay: 2-weeks continuous subcutaneous administration study in DIO mice (anti-obesity activity); format: in vivo, mouse; conditions: 1 nmol/kg/day, subcutaneous Alzet pump, 2 weeks after start of administration; rate of weight loss, control group regarded as 0%
Method: 2-Weeks Continuous Subcutaneous Administration Study in DIO Mice
The anti-obesity activity of a test compound was examined by the method described below.
Diet-induced obesity (DIO) mice were prepared by feeding male C57BL/6J mice with high-fat diet (D12451: Research Diets, Inc.). The test compound was dissolved in a solvent (50% DMSO) so that sustained release would occur at 1 nmol/kg/day, and the solution was filled in the Alzet Pump (DURECT Corporation, model: 1002). The pump thus filled with the solution to be administered was immersed in physiological saline for priming, and then used. The pump was embedded by the following method. Each male DIO-C57BL/6J mouse at 35-37 weeks of age (20-26° C., allowed to take food and water ad libitum; 12-hour bright-12-hour dark cycle) was anesthetized; the skin in the upper back thereof was incised, and the above-mentioned pump was embedded subcutaneously; the incision was sutured. After weighing, this mouse was returned to the rearing cage (reared alone), and given previously weighed food; the body weight was measured every 1 to 3 days after the start of administration. The anti-obesity activity of each test compound was evaluated on the basis of the rate of weight loss 2 weeks after the start of administration, with the rate of weight loss in a control group receiving administration of the solvent alone regarded as 0%.

| Structure (SMILES) | Food intake suppression (%) (male C57BL/6J mouse) | Change in body weight [1] |
| --- | --- | --- |
| CC(C)C[C@H](NC(=O)[C@H](CC(C)C)NC(=O)[C@H](Cc1c[nH]c2ccccc12)NC(=O)[C@H](CCCCN)NC(=O)[C@@H](NC(=O)[C@H](Cc1ccccc1)NC(=O)[C@H](CCC(=O)O)NC(=O)[C@H](CCC(N)=O)NC(=O)[C@H](CCC(N)=O)NC(=O)[C@H](C)NC(=O)[C@H](CCC(N)=O)NC(=O)[C@H](CCCCN)NC(=O)[C@H](CC(=O)O)NC(=O)[C@H](CC(C)C)NC(=O)[C@H](Cc1ccc(O)cc1)NC(=O)[C@H](CCCCN)NC(=O)C(C)(C)NC(=O)[C@H](Cc1ccc(O)cc1)NC(=O)[C@H](CC(=O)O)NC(=O)[C@H](CO)NC(=O)[C@@H](NC(=O)[C@](C)(Cc1ccccc1)NC(=O)[C@@H](NC(=O)CNC(=O)[C@H](CCC(=O)O)NC(=O)C(C)(C)NC(=O)[C@@H](N)Cc1ccc(O)cc1)[C@@H](C)O)[C@@H](C)O)C(C)C)C(=O)N[C@@H](CCCCN)C(=O)NCC(=O)NCC(=O)N1CCC[C@H]1C(=O)N[C@@H](CO)C(=O)N[C@@H](CO)C(=O)NCC(=O)N[C@@H](C)C(=O)N1CCC[C@H]1C(=O)N1CCC[C@H]1C(=O)N1CCC[C@H]1C(=O)N[C@@H](CO)C(N)=O [Example 26] (H-Y[Aib]EGT[αMeF]TSDY[Aib]KYLDKQAQQEFVKWLLKGGPSSGAPPPS-NH2) | 53.06% | −16.2 |
| CC(C)C[C@H](NC(=O)[C@H](CC(C)C)NC(=O)[C@H](Cc1c[nH]c2ccccc12)NC(=O)[C@H](CCCCN)NC(=O)[C@@H](NC(=O)[C@H](Cc1ccccc1)NC(=O)[C@H](CCC(=O)O)NC(=O)[C@H](CCC(N)=O)NC(=O)[C@H](CCC(N)=O)NC(=O)[C@H](C)NC(=O)[C@H](CCC(N)=O)NC(=O)[C@H](CCCCN)NC(=O)[C@H](CC(=O)O)NC(=O)[C@H](CC(C)C)NC(=O)[C@H](Cc1ccc(O)cc1)NC(=O)[C@H](CCCCN)NC(=O)C(C)(C)NC(=O)[C@H](Cc1ccc(O)cc1)NC(=O)[C@H](CC(=O)O)NC(=O)[C@H](CO)NC(=O)[C@@H](NC(=O)[C@](C)(Cc1ccccc1)NC(=O)[C@@H](NC(=O)CNC(=O)[C@H](CCC(=O)O)NC(=O)C(C)(C)NC(=O)[C@@H](N)Cc1ccc(O)cc1)[C@@H](C)O)[C@@H](C)O)C(C)C)C(=O)N[C@@H](CCCCN)C(=O)NCC(=O)NCC(=O)N1CCC[C@H]1C(=O)N[C@@H](CO)C(=O)N[C@@H](CO)C(=O)NCC(=O)N[C@@H](C)C(=O)N1CCC[C@H]1C(=O)N1CCC[C@H]1C(=O)N1CCC[C@H]1C(=O)N[C@@H](CO)C(=O)N[C@@H](CCCCN)C(N)=O [Example 25] (H-Y[Aib]EGT[αMeF]TSDY[Aib]KYLDKQAQQEFVKWLLKGGPSSGAPPPSK-NH2) | 53.12% | −11.2 |
| CC[C@H](C)[C@H](NC(=O)C(C)(C)NC(=O)[C@H](Cc1ccc(O)cc1)NC(=O)[C@H](CC(=O)O)NC(=O)[C@H](CO)NC(=O)[C@@H](NC(=O)[C@](C)(Cc1ccccc1)NC(=O)[C@@H](NC(=O)CNC(=O)[C@H](CCC(=O)O)NC(=O)C(C)(C)NC(=O)[C@@H](N)Cc1ccc(O)cc1)[C@@H](C)O)[C@@H](C)O)C(=O)NC(C)(C)C(=O)N[C@@H](CC(C)C)C(=O)N[C@@H](CC(=O)O)C(=O)N[C@@H](CCCCN)C(=O)N[C@@H](CCC(N)=O)C(=O)N[C@@H](C)C(=O)N[C@@H](CCC(N)=O)C(=O)N[C@@H](CO)C(=O)N[C@@H](CCC(=O)O)C(=O)N[C@@H](Cc1ccccc1)C(=O)N[C@H](C(=O)N[C@@H](CCCCN)C(=O)N[C@@H](Cc1c[nH]c2ccccc12)C(=O)N[C@@H](CC(C)C)C(=O)N[C@@H](CC(C)C)C(=O)N[C@@H](CCCCN)C(=O)NCC(=O)NCC(=O)N1CCC[C@H]1C(=O)N[C@@H](CO)C(=O)N[C@@H](CO)C(=O)NCC(=O)N[C@@H](C)C(=O)N1CCC[C@H]1C(=O)N1CCC[C@H]1C(=O)N1CCC[C@H]1C(=O)N[C@@H](CO)C(=O)N[C@@H](CCCCN)C(N)=O)C(C)C [Example 4] (H-Y[Aib]EGT[αMeF]TSDY[Aib]I[Aib]LDKQAQSEFVKWLLKGGPSSGAPPPSK-NH2) | 57.01% | – |
